Molecular target: Gastrin-releasing peptide receptor (Homo sapiens, UniProt P30550)
Assay: Displacement of 125I[Tyr4]-bombesin from GRPR expressed in human PC3 cells
Assay type: cell-based, PC-3

Sequence of Gastrin-releasing peptide receptor (P30550 whole entry): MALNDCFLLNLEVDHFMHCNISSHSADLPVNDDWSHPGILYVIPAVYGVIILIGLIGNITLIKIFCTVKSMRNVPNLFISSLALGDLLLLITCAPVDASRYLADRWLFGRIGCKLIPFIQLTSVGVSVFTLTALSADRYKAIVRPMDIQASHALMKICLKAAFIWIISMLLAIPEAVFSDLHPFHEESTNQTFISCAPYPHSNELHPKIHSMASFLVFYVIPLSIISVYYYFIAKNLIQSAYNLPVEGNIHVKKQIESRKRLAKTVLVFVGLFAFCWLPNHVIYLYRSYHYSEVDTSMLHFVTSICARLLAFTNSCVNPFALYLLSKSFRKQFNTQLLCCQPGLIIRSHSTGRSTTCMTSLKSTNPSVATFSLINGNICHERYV

- EC50: 0.373 nM
Structure (SMILES): CSCC[C@H](NC(=O)[C@H](CC(C)C)NC(=O)[C@H](Cc1cnc[nH]1)NC(=O)CNC(=O)[C@@H](NC(=O)[C@H](C)NC(=O)[C@H](Cc1c[nH]c2ccccc12)NC(=O)[C@H](CCC(N)=O)NC(=O)CCCCCCCNC(=O)CCCCCN)C(C)C)C(N)=O

— ChEMBL document CHEMBL1143880, “Targeting gastrin-releasing peptide receptors of prostate cancer cells for photodynamic therapy with a phthalocyanine-bombesin conjugate” (Bioorg Med Chem Lett, 2008)
